Source: the supplement of paper PMC10307832

Legend:
Assay in all cases: relative viability (nuclei count vs DMSO), 5 days (fraction); higher = more cells survive
[1] = compound: CN1CCC(CNc2ccc3ncc(-c4cccc(OC(F)(F)F)c4)n3n2)CC1 [SGI-1776] + CS(=O)(=O)CCNCc1ccc(-c2ccc3ncnc(Nc4ccc(OCc5cccc(F)c5)c(Cl)c4)c3c2)o1 [Lapatinib] (partner 2 µM)
How it was run: (§1)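 Lung cancer cell lines in 1536-well plates got either a single drug or a fixed anchor-drug dose together with five library-drug doses (not always all listed) in √10 steps, by pin tool, on the day after seeding. Nuclei were counted after 5 days, and relative viability is the treated-to-vehicle ratio of nuclei counts. Values are medians of duplicate plates.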

[2] = compound: C1COCCN1C2=NC(=NC3=C2OC4=C3C=CC=N4)C5=CC(=CC=C5)NC(=O)C6=CN=C(C=C6)N + CC(=O)c1c(C)c2cnc(Nc3ccc(N4CCNCC4)cn3)nc2n(C2CCCC2)c1=O [Palbociclib] (partner 0.5 µM)
How it was run: as §1

[3] = compound: CN1CCC(CNc2ccc3ncc(-c4cccc(OC(F)(F)F)c4)n3n2)CC1 [SGI-1776] + COc1cc2c(Oc3ccc(NC(=O)C4(C(=O)Nc5ccc(F)cc5)CC4)cc3F)ccnc2cc1OCCCN1CCOCC1 [Foretinib] (partner 0.25 µM)
How it was run: as §1

[4] = compound: CN1CCC(CNc2ccc3ncc(-c4cccc(OC(F)(F)F)c4)n3n2)CC1 [SGI-1776] + CC(C)C[C@H](NC(=O)[C@H](Cc1ccccc1)NC(=O)c1cnccn1)B(O)O [Bortezomib] (partner 0.002 µM)
How it was run: as §1

Cell Line	relative viability ([1]; first compound 0.08 µM)	relative viability ([1]; first compound 0.8 µM)	relative viability ([1]; first compound 2.53 µM)	relative viability ([1]; first compound 8 µM)	relative viability ([2]; first compound 0.02 µM)	relative viability ([2]; first compound 0.06325 µM)	relative viability ([2]; first compound 0.2 µM)	relative viability ([2]; first compound 0.6325 µM)	relative viability ([2]; first compound 2 µM)	relative viability ([3]; first compound 0.08 µM)	relative viability ([3]; first compound 0.8 µM)	relative viability ([3]; first compound 2.53 µM)	relative viability ([3]; first compound 8 µM)	relative viability ([4]; first compound 0.08 µM)	relative viability ([4]; first compound 0.8 µM)	relative viability ([4]; first compound 2.53 µM)	relative viability ([4]; first compound 8 µM)
NCI-H1915	0.981	0.95	0.972	0.949	0.516	0.573	0.512	0.613	0.48	1.09	1.03	1.11	1.09	1.01	0.985	0.932	0.935
NCI-H1975	0.922	0.928	0.899	0.838	0.589	0.777	0.48	0.455	0.38	0.961	0.943	0.827	0.692	0.393	0.399	0.35	0.277
NCI-H1993	0.839	0.958	0.841	0.636	0.683	0.72	0.543	0.632	0.467	0.819	0.761	0.688	0.695	1.21	1.14	0.967	0.803
NCI-H2009	0.985	0.897	1	0.766	0.195	0.224	0.144	0.223	0.202	1.19	1.27	1.24	0.931	1.03	1.02	0.991	0.733
NCI-H2023	0.918	1.21	1.04	0.219	0.378	0.384	0.316	0.256	0.172	0.96	0.857	0.675	0.328	1.13	1.07	0.988	0.727
NCI-H2085	0.838	0.847	0.748	0.687	0.405	0.502	0.455	0.445	0.438	0.864	0.864	0.852	0.715	1.14	1.16	1	0.922
NCI-H2087	1.1	1.03	1.09	1.13	0.211	0.223	0.235	0.219	0.194	1.1	1.17	0.843	0.376	0.772	0.802	0.982	0.722
NCI-H2126	0.72	0.742	0.772	0.71	0.297	0.367	0.345	0.388	0.36	1.29	1.27	1.44	1.06	1.15	1.18	1.04	1.13
NCI-H2228	0.816	1.21	0.927	0.415	0.934	0.817	0.407	0.64	0.621	0.889	0.613	0.803	0.446	1.05	0.917	0.992	0.531
NCI-H2347	1.13	0.965	0.948	0.869	0.443	0.413	0.4	0.48	0.441	0.836	0.862	0.531	0.84	1.04	0.961	1.15	0.897
NCI-H2405	0.994	1.14	1.19	0.728	0.498	0.566	0.499	0.48	0.359	1.07	1	0.998	0.934	1.04	0.997	0.896	0.924
NCI-H3122	0.964	1.05	1.07	0.988	0.182	0.187	0.164	0.186	0.16	0.968	0.964	1.04	1.04	1.06	1.01	1.08	1.01
PC-3 [JPC-3]	0.441	0.466	0.478	0.371	0.506	0.512	–	0.592	0.495	1.03	1.01	1.08	0.978	0.867	0.806	0.845	0.687
PC-14	0.337	0.31	0.261	0.209	0.482	0.562	0.562	0.284	0.189	1.03	0.959	0.952	0.672	0.846	0.915	0.99	0.566
RERF-LC-KJ	0.867	0.868	0.728	0.795	1.04	1.15	1.21	1	0.764	0.879	0.894	0.879	0.78	1.1	1.08	0.956	1.04
SK-LU-1	0.861	1.03	0.782	0.667	0.382	0.382	0.371	0.367	0.359	0.843	0.773	0.765	0.426	1.28	1.31	1.52	0.807
SW 1573	1.29	1.09	1.15	1.06	0.397	0.381	0.37	0.429	0.261	0.949	0.846	0.846	0.791	1.03	0.872	1.07	0.935
